From patent US20200155638A1, “Enhancing Oxytocin Receptor Expression Using an Oxytocin Receptor Agonist and an Alk5 Antagonist” (The Regents of the University of California, priority 2017, published 2020)
Entries after “also recorded” stand apart in the source; their conditions may differ.

Legend:
[1] = tested on: oxytocin receptor (OXTR); test: OXTR expression in skeletal muscle by real-time qRT PCR; assay type: in vivo, C57.B6 mice; settings: old mice, s.c. daily 7 days, compared to control HBSS
Description: Old C57.B6 male mice (23-24 mo) per were administered by subcutaneous injections with oxytocin (OXT), Alk5i, a mixture of OXT and Alk5i (OXT+Alk5i) or control in vivo for 7 days, daily. The expression levels of oxytocin receptor (OXTR) were assayed by real-time qRT PCR in skeletal muscle of these mice.
OT and/or A5i or control vehicle (HBSS) was injected subcutaneously to old male C57.B6 mice (23-24 month), daily for 7 days before sacrifice. 3 month C57.B6 male mice identically injected with HBSS were used as young controls
qPCR analysis: Tissue lysates from frozen muscle, liver, and brain embedded in OCT were prepared. 40 slices of 10 μm thick slices were collected and homogenized using QIAShredder (from QIAGEN). Total RNA was extracted with RNeasy Mini Kit (from QIAGEN) according to manufacturer's instructions. Reverse transcription was performed with Superscript III First-Stand Synthesis System (from Invitrogen) according to manufacturer's instructions. For real-time PCR amplification and quantification of gene of interest, 1 ug of total cDNA was used for the initial amplification using specific primers to each gene of interest; amplification was performed with a denaturation step at 95 C for 10 minutes, followed by 40 cycles of denaturation at 95 C for 15 seconds and primer extension at 60 C for 30 s. Real-time PCR was performed using iQ™ SYBR Green Supermix (from Bio-Rad) under CFX Connect Real-Time System (Bio-Rad). Reactions were run in triplicates. Housekeeping gene actin was used as an internal control to normalize the variability in expression levels, and results were analyzed using the 2-ΔΔCT method described (50).

[2] = tested on: neural stem cells (Sox-2+) in the subgranular zone of the Dentate Gyrus; test: Hippocampal neurogenesis in old mice (proliferating Sox-2+ neural stem cells in SGZ); assay type: in vivo; settings: old mice with CTX muscle injury, 7 days treatment, vs HBSS control
Description: In addition to the cohort that underwent muscle injury, we also performed a study with old mice that were not injured. Young mice administered with control HBSS served as control. […] Hippocampal neurogenesis was assayed in the same mice that were studied for muscle repair above and additionally for mice that were not injured by cardiotoxin. The numbers of proliferating neural stem cells (Sox2+Ki67+) cells per DG of SGZ of hippocampus were quantified in serial brain cryosections. […] NS=non-statistically significant. […] Scale bar=100 microns. […] Data quantification: Muscle regeneration indices were calculated by counting percent de-novo myofibers with central nuclei to total nuclei in multiple images of 10-micron muscle sections for independently treated animals. Muscle fibrosis was quantified by measuring fibrotic areas on Image J. These fibrotic areas were normalized to the area of the image taken at 20× (˜14000 micron^2). Hippocampal neurogenesis (Sox2+/Ki67+, Sox2/BrdU+), p16+SGZ cell numbers and CD45+ cell numbers were quantified by counting the number of respective cells (from multiple 25-35-micron IF brain sections) and for neurogenesis and p16+ cells, extrapolating these numbers to the total thickness of the dentate gyrus. […]

[3] = tested on: old mice; test: Four-limb hanging test; assay type: in vivo; settings: old mice without muscle injury; for strength (average hang time): 7-day treatment; for learning: percent improvement from first to second hang time: before and after 7-day treatment
Description: To assay functional performance, Alk5i alone (low dose), OT alone, Alk5i+OT and control HBSS were dosed to old mice without muscle injury, using young mice injected with HBSS as an additional control. The four-limb hanging test was given to all mice before and after the 7-day treatment. In order to better focus the test on the learning and memory aspects (rather than strength) we examined the percent improvement of each individual animal from the first to the second test session among all studied cohorts.
A four-limb hanging test was conducted with mice before and after treatment by injection of oxytocin (OT), Alk5 inhibitor (A5i) or both, or control HBSS (young and old). The maximal hang time from two trials was considered and the percent change for each animal before and after treatment is shown. A difference is observed between young and all old cohorts (p<0.04) except for the old+Alk5i+OT where there is no statistically significant difference with the young (p=0.5) (test, 1 tail, heteroscedastic).
Four limb hanging test: Muscle strength and endurance were determined by timing how long mice can hang upside down from a wire screen, as published (27). Briefly, each mouse was placed on a 1 cm. mesh, 1 mm wire screen, 30 cm over soft bedding, inverted and timed until the mouse fell. Each animal was given two to three trials with at least a 5-minute rest between trials. Hanging index is expressed as the maximum hang time times the weight of the mouse, with longer times or greater weight for a given time considered better performance.

[4] = tested on: p16; test: p16 protein in primary myotubes (Western Blotting); assay type: cell-based; settings: 24 hours treatment
[5] = tested on: p21; settings: high dose, old mice; cited from earlier work
[6] = tested on: muscle regeneration; settings: short term subcutaneous injection; cited from earlier work
[7] = tested on: p21; settings: pERK-dependent manner; cited from earlier work

| Molecule | OXTR expression levels in skeletal muscle [1] | OXTR levels diminished by [1] | hippocampal neurogenesis (Sox2+Ki67+ cells) [2] | strength (average hang time) [3] | learning: percent improvement from first to second hang time [3] | p16 protein levels in primary myotubes [4] | p21 levels in brain [5] | OXTR expression levels in skeletal muscle ([1]; listed as OXT) | muscle regeneration in old mice [6] | CDKI p21 [7] |
| --- | --- | --- | --- | --- | --- | --- | --- | --- | --- | --- |
| 2-(3-(6-Methylpyridin-2-yl)-1H-pyrazol-4-yl)-1,5-naphthyridine [Alk5i] | reduced the levels of the oxytocin receptor (OTR) | 2 fold | failed to enhance the neurogenesis of the old animals | young animals outperformed all old cohorts | did not show improvement | not either molecule alone | attenuates p21 levels in brain of old mice | – | – | – |
| CC[C@H](C)[C@@H]1NC(=O)[C@H](Cc2ccc(O)cc2)NC(=O)[C@@H](N)CSSC[C@@H](C(=O)N2CCC[C@H]2C(=O)N[C@@H](CC(C)C)C(=O)NCC(N)=O)NC(=O)[C@H](CC(N)=O)NC(=O)[C@H](CCC(N)=O)NC1=O [OT, Oxytocin] | – | – | failed to enhance the neurogenesis of the old animals | young animals outperformed all old cohorts | did not show improvement | not either molecule alone | – | had no effect; also recorded: did not have an effect on OXTR | able to restore muscle regeneration in old mice | down-modulate CDKI p21 |
